Results as given in patent US20240173432A1, “Compositions and Methods for Treatment of Myotonic Dystrophy Type 1 with CRISPR/SluCas9” (Vertex Pharmaceuticals Incorporated, priority 2021, published 2024).

What was measured:
[1] = system: CUG foci in primary DM1 patient myoblasts; assay: Single-cut screening: FISH staining of CUG RNA foci; format: cell-based, human; details: for frequency of CUG foci free myoblast nuclei (foci number per nucleus=0) / frequency of myoblast nuclei that contain more than three CUG foci: RNA foci distribution analysis (FIG. 6A-B); for % of CUG foci free nuclei (DNA-PKi) / % of CUG foci free nuclei (Vehicle): single sgRNA, primary DM1 patient myoblasts; for % of CUG foci free nuclei (DNA-PKi): DNA-PKi treated
Outline: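 CD56-purified primary DM1 patient myoblasts nucleofected with SluCas9:sgRNA RNP (30:90 pmol, single-cut), then DMSO or 3 μM DNA-PK inhibitor for 48 h. At 72 h post-nucleofection, cells fixed and stained for CUG foci with Cy3-PNA(CAG)5 probe (1 ng/μL, 80 °C), co-stained for MBNL1 and Hoechst, imaged by high-content confocal microscopy.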

[2] = system: 3′ UTR of the human DMPK gene; assay: Single-cut screening: indel editing efficiency by Sanger sequencing and ICE analysis in primary DM1 patient myoblasts; format: cell-based; details: vehicle-treated samples; for indel efficiency (Sanger sequencing and ICE analysis): single-cut, SluCas9 RNP, 72 hrs post nucleofection, wild-type allele; for Indel efficiency: single SluCas9 sgRNA RNP in primary DM1 patient myoblasts, Sanger sequencing and ICE analysis
Outline: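 Indels were estimated by ICE from Sanger chromatograms of PCR amplicons covering the DMPK 3′ UTR wild-type allele, using only vehicle-treated samples; sgRNAs with R2<0.9 are flagged. Samples came from primary DM1 patient myoblasts (2 × 10^5) harvested 72 h after nucleofection with 30 pmol SluCas9 and 90 pmol single sgRNA RNP.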

Substance | frequency of CUG foci free myoblast nuclei (foci number per nucleus=0) [1] | frequency of myoblast nuclei that contain more than three CUG foci [1] | % of CUG foci free nuclei (DNA-PKi) [1] [%] | % of CUG foci free nuclei (Vehicle) [1] [%] | indel efficiency (Sanger sequencing and ICE analysis) [2] | Indel efficiency [2] [%] | percentage of CUG foci free nuclei ([1]; single-cut, DNA-PKi treatment (3 μM Compound 6, 48 hrs)) [%]
ggggcTCGAAGGGTCCTTGTAG (as printed in the source, key not given here) [SluU63] | increased the frequency | reduced the frequency | 70.99 | 44.78 | high editing IN4DEL efficiency |  | 
gggcTCGAAGGGTCCTTGTAGC (as printed in the source, key not given here) [SluU64] |  |  | 67.39 | 37.58 | high editing IN4DEL efficiency | 59 | 
GCCCCGTTGGAAGACTGAGTGC (listed as DNA, chemistry not fully specified) [SluU08] |  |  | 61.56 | 31.42 | high editing IN4DEL efficiency | 87 | 
ATGGGCAAACTGCAGGCCTGGG (listed as DNA, chemistry not fully specified) [SluD14] | increased the frequency | reduced the frequency | 81.82 | 53.12 | high editing IN4DEL efficiency |  | 81.82
